Results from patent US20040185102A1, “Dosage forms comprising a CETP inhibitor and an HMG-CoA reductase inhibitor” (Pfizer Inc, priority 2002, published 2004).

Tests used:
[1] = in vitro dissolution test using a microcentrifuge method; type: physicochemical; settings: for AUC / Torcetrapib Concentration: PBS pH 6.5, 37° C.; for Torcetrapib Concentration: 1000 μg/mL if all drug dissolved
Protocol: The spray-dried solid amorphous dispersion was evaluated in an in vitro dissolution test using a microcentrifuge method. In this test, 7.2 mg of the spray-dried solid amorphous dispersion was placed into a microcentrifuge tube. The tube was placed in a 37° C. sonicating bath, and 1.8 mL phosphate buffered saline (PBS) at pH 6.5 and 290 mOsm/kg was added, resulting in a torcetrapib concentration of 1000 μg/mL if all of the drug had dissolved. The sample was quickly mixed using a vortex mixer for about 60 seconds. The sample was centrifuged at 13,000 G at 37° C. for 1 minute. The resulting supernatant solution was then sampled and diluted 1:6 (by volume with methanol and then analyzed by high-performance liquid chromatography (HPLC). The contents of the tube was mixed on the vortex mixer and allowed to stand undisturbed at 37° C. until the next sample was taken. Samples were collected at 4, 10, 20, 40, 90, and 1200 minutes. The concentrations of drug obtained in these samples are shown in Table 1, which represent the average of duplicate tests.
As a control, an in vitro dissolution test was performed using the procedures described above except that 1.8 mg of crystalline drug was used. […]

aqueous solubility = type: physicochemical

AUC90 (area under the aqueous concentration versus time curve after 90 minutes) ([1]; receptor solution PBS): <88 min-μg/mL
Cmax,90 (maximum concentration of torcetrapib in solution during the first 90 minutes) ([1]; receptor solution PBS): <1 µg/mL
AUC ([1]; time 0 min): 0 min-μg/mL
Torcetrapib Concentration ([1]; time 0 min): 0 µg/mL
AUC ([1]; time 4 min): <2 min-μg/mL
Torcetrapib Concentration ([1]; time 4 min): <1 µg/mL
AUC ([1]; time 10 min): <8 min-μg/mL
Torcetrapib Concentration ([1]; time 10 min): <1 µg/mL
AUC ([1]; time 20 min): <18 min-μg/mL
Torcetrapib Concentration ([1]; time 20 min): <1 µg/mL
AUC ([1]; time 40 min): <38 min-μg/mL
Torcetrapib Concentration ([1]; time 40 min): <1 µg/mL
AUC ([1]; time 90 min): <88 min-μg/mL
Torcetrapib Concentration ([1]; time 90 min): <1 µg/mL
AUC ([1]; time 1200 min): <1,200 min-μg/mL
Torcetrapib Concentration ([1]; time 1200 min): <1 µg/mL
solubility (aqueous solubility): < 0.04 µg/mL
SMILES: CCOC(=O)N1c2ccc(C(F)(F)F)cc2[C@@H](N(Cc2cc(C(F)(F)F)cc(C(F)(F)F)c2)C(=O)OC)C[C@H]1CC [Crystalline Drug, [2R,4S]-4-[(3,5-bis-trifluoromethyl-benzyl)-methoxycarbonyl-amino]-2-ethyl-6-trifluoromethyl-3,4-dihydro-2H-quinoline-1-carboxylic acid ethyl ester]
